Structures can show the parent of a compound that is named as a salt.

This test concerns behaviors of compound-treated mice. In words: Neuropharmacological Assay (SmartCube). The class given is in vivo. As to conditions: for minimal effective dose: Mus musculus, ip, 0.25 h, dose having 50% or more total activity in SmartCube, i.p., read-out: MED (minimal effective dose); for AD: ADHD (probability that activity matches class) / AG: analgesic (probability that activity matches class) / AX: anxiolytic (probability that activity matches class) / CE: cognitive enhancer (probability that activity matches class) / DP: anti-depressant (probability that activity matches class) / MS: mood stabilizer (probability that activity matches class) / PS: anti-psychotic (probability that activity matches class) / SD: sedative hypnotic (probability that activity matches class) / UN: uncharacterized CNS activity (probability that activity matches class): i.p. 15 min before behavioral test, most efficacious dose(s) of 3 doses. The method, boiled down: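 Behavioral signatures were captured automatically by video, and each drug class received a probability for the best of three i.p. doses given 15 min pre-test (vehicle: Pharmasolve/PEG/propylene glycol). Potency is given as MED, the lowest mpk dose (typically 0.3–30) reaching 50% or more total activity.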

As for `NC[C@H]1OCc2c(-c3ccccn3)cccc21` (single isomer, unassigned) [Compound 42], the minimal effective dose fell in the range of 10 to 30 mg/kg, the “AD: ADHD (probability that activity matches class)” value (from here on “AD: ADHD”) is reported as “+ (LOQ ≤ + <5%)”, the “AG: analgesic (probability that activity matches class)” value (from here on “AG: analgesic”) is recorded as “+++ (25% ≤ +++ <50%)” and the “AX: anxiolytic (probability that activity matches class)” value (shortened to “AX: anxiolytic”) is given as “++ (5% ≤ ++ <25%)”. The “CE: cognitive enhancer (probability that activity matches class)” value (“CE: cognitive enhancer” for short) is listed as “++ (5% ≤ ++ <25%)”, the “DP: anti-depressant (probability that activity matches class)” value (“DP: anti-depressant” below) is reported as “++ (5% ≤ ++ <25%)”, the “MS: mood stabilizer (probability that activity matches class)” value (“MS: mood stabilizer” below) was “+ (LOQ ≤ + <5%)” and the “PS: anti-psychotic (probability that activity matches class)” value (“PS: anti-psychotic” below) was “+ (LOQ ≤ + <5%)”. The “SD: sedative hypnotic (probability that activity matches class)” value (shortened to “SD: sedative hypnotic”) is recorded as “+ (LOQ ≤ + <5%)” and the “UN: uncharacterized CNS activity (probability that activity matches class)” value (“UN: uncharacterized CNS activity” below) was “++ (5% ≤ ++ <25%)”.

For the compound `NC[C@H]1OCCc2cc(-c3cccnc3)ccc21` [Compound 14, hydrochloride salt], the minimal effective dose was 3 to 10 mg/kg, the “AD: ADHD” value is given as “+ (LOQ ≤ + <5%)”, the “AG: analgesic” value is reported as “++ (5% ≤ ++ <25%)” and the “AX: anxiolytic” value is reported as “++ (5% ≤ ++ <25%)”. The “CE: cognitive enhancer” value was “+ (LOQ ≤ + <5%)”, the “DP: anti-depressant” value is reported as “++++ (50% ≤ ++++)”, the “MS: mood stabilizer” value was “+ (LOQ ≤ + <5%)” and the “PS: anti-psychotic” value was “+ (LOQ ≤ + <5%)”. Further, the “SD: sedative hypnotic” value is given as “+ (LOQ ≤ + <5%)” and the “UN: uncharacterized CNS activity” value was “++ (5% ≤ ++ <25%)”.

`NC[C@@H]1OCCc2c(-c3ccncc3)cccc21` [Compound 19, (R)-(5-(Pyridin-4-yl)isochroman-1-yl)methanamine hydrochloride salt]: the minimal effective dose was above 30 mg/kg, the “AD: ADHD” value is on record as “+ (LOQ ≤ + <5%)”, the “AG: analgesic” value is given as “++ (5% ≤ ++ <25%)” and the “AX: anxiolytic” value was “++ (5% ≤ ++ <25%)”. In addition, the “CE: cognitive enhancer” value is listed as “++ (5% ≤ ++ <25%)”, the “DP: anti-depressant” value was “++ (5% ≤ ++ <25%)”, the “MS: mood stabilizer” value is reported as “+ (LOQ ≤ + <5%)” and the “PS: anti-psychotic” value was “+ (LOQ ≤ + <5%)”. The “SD: sedative hypnotic” value is reported as “+ (LOQ ≤ + <5%)” and the “UN: uncharacterized CNS activity” value is recorded as “+ (LOQ ≤ + <5%)”.

On to `CNC[C@@H]1OCCc2c(-c3ncco3)cccc21` [Compound 104, (R)—N-Methyl-1-(5-(oxazol-2-yl)isochroman-1-yl)methanamine hydrochloride salt], for which the minimal effective dose is above 30 mg/kg, the “AD: ADHD” value is listed as “+ (LOQ ≤ + <5%)”, the “AG: analgesic” value is given as “+ (LOQ ≤ + <5%)” and the “AX: anxiolytic” value is on record as “++ (5% ≤ ++ <25%)”. In addition, the “CE: cognitive enhancer” value is recorded as “+ (LOQ ≤ + <5%)”, the “DP: anti-depressant” value is recorded as “++ (5% ≤ ++ <25%)”, the “MS: mood stabilizer” value is “+ (LOQ ≤ + <5%)” and the “PS: anti-psychotic” value is “+ (LOQ ≤ + <5%)”. The “SD: sedative hypnotic” value is “+ (LOQ ≤ + <5%)” and the “UN: uncharacterized CNS activity” value is recorded as “+ (LOQ ≤ + <5%)”.

As for `CNC[C@H]1OCCc2ccc(-c3cncnc3)cc21` (single isomer, unassigned) [Compound 25, hydrochloride], the minimal effective dose fell in the range of 10 to 30 mg/kg, the “AD: ADHD” value is “+ (LOQ ≤ + <5%)”, the “AG: analgesic” value is listed as “++ (5% ≤ ++ <25%)” and the “AX: anxiolytic” value is on record as “++ (5% ≤ ++ <25%)”. In addition, the “CE: cognitive enhancer” value is reported as “+++ (25% ≤ +++ <50%)”, the “DP: anti-depressant” value was “++ (5% ≤ ++ <25%)”, the “MS: mood stabilizer” value is on record as “++ (5% ≤ ++ <25%)” and the “PS: anti-psychotic” value was “++ (5% ≤ ++ <25%)”. For the same compound, the “SD: sedative hypnotic” value is reported as “++ (5% ≤ ++ <25%)” and the “UN: uncharacterized CNS activity” value is on record as “+ (LOQ ≤ + <5%)”.

For `NC[C@H]1OCCCc2c(-c3ccccn3)cccc21` [Compound 159, (S)-(6-(pyridin-2-yl)-1,3,4,5-tetrahydrobenzo[c]oxepin-1-yl)methanamine hydrochloride salt], the minimal effective dose was 10 to 30 mg/kg, the “AD: ADHD” value is given as “+ (LOQ ≤ + <5%)”, the “AG: analgesic” value is given as “+ (LOQ ≤ + <5%)” and the “AX: anxiolytic” value was “+ (LOQ ≤ + <5%)”. In addition, the “CE: cognitive enhancer” value is on record as “+ (LOQ ≤ + <5%)”, the “DP: anti-depressant” value was “+ (LOQ ≤ + <5%)”, the “MS: mood stabilizer” value is “+ (LOQ ≤ + <5%)” and the “PS: anti-psychotic” value is given as “+ (LOQ ≤ + <5%)”. The “SD: sedative hypnotic” value is on record as “+ (LOQ ≤ + <5%)” and the “UN: uncharacterized CNS activity” value is listed as “+ (LOQ ≤ + <5%)”.

On to `CNC[C@H]1OCCc2c(-c3ncccn3)cccc21` [Compound 23, (S)—N-Methyl-1-(5-(pyrimidin-2-yl)isochroman-1-yl)methanamine hydrochloride salt], for which the minimal effective dose was in the range of 10 to 30 mg/kg, the “AD: ADHD” value is “++ (5% ≤ ++ <25%)”, the “AG: analgesic” value is listed as “++ (5% ≤ ++ <25%)” and the “AX: anxiolytic” value was “++ (5% ≤ ++ <25%)”. The “CE: cognitive enhancer” value is listed as “+ (LOQ ≤ + <5%)”, the “DP: anti-depressant” value is listed as “++++ (50% ≤ ++++)”, the “MS: mood stabilizer” value is on record as “+ (LOQ ≤ + <5%)” and the “PS: anti-psychotic” value is given as “+ (LOQ ≤ + <5%)”. Besides, the “SD: sedative hypnotic” value is reported as “+ (LOQ ≤ + <5%)” and the “UN: uncharacterized CNS activity” value is recorded as “+ (LOQ ≤ + <5%)”.

As for `CNC[C@H]1OCCc2ccc(-c3cccnc3)cc21` [Compound 4, (S)-N-methyl-1-(7-(pyridin-3-yl)isochroman-1-yl)methanamine dihydrochloride], the minimal effective dose fell in the range of 3 to 10 mg/kg, the “AD: ADHD” value is on record as “+ (LOQ ≤ + <5%)”, the “AG: analgesic” value is “+ (LOQ ≤ + <5%)” and the “AX: anxiolytic” value was “++ (5% ≤ ++ <25%)”. The “CE: cognitive enhancer” value is “+ (LOQ ≤ + <5%)”, the “DP: anti-depressant” value is listed as “++ (5% ≤ ++ <25%)”, the “MS: mood stabilizer” value is given as “+ (LOQ ≤ + <5%)” and the “PS: anti-psychotic” value is given as “+++ (25% ≤ +++ <50%)”. The “SD: sedative hypnotic” value was “+ (LOQ ≤ + <5%)” and the “UN: uncharacterized CNS activity” value was “++ (5% ≤ ++ <25%)”.
